Laboratory results taken from ChEMBL document CHEMBL1122054, “Lysosomotropic agents. 4. Carbobenzoxyglycylphenylalanyl, a new protease-sensitive masking group for introduction into cells” (J Med Chem, 1982).

What was measured:
[1] = Compound in absence of MPM cell homogenate at pH 3 to isolate compound 4 (ng); assay type: ADME, cell-based
MPM = assay: Compound in presence of MPM cells and in absence of inactivator at pH 8 to isolate compound 4 (ng); assay type: cell-based
[2] = Compound in absence of MPM cell homogenate at pH 4.5 to isolate compound 4 (ng); assay type: ADME, cell-based
[3] = Compound in absence of MPM cell homogenate at pH 7 to isolate compound 4 (ng); assay type: ADME, cell-based
Mus musculus [4] = species on record: Mus musculus; assay: Toxicity toward P-815 Mastocytoma cells after 5 hr was determined as percent of [51Cr]- release from labeled cells as a measure of cell death. at a concentration of 0.331 mM. (expt III); assay type: functional
Mus musculus [5] = species on record: Mus musculus; assay: Toxicity was evaluated for the compound at a concentration of 0.331 mM against […] Mastocytoma.; assay type: functional
[6] = Compound treated with MPM cell homogenate at pH 4.5 to isolate compound 4 (ng); assay type: ADME, cell-based
Mus musculus [7] = species on record: Mus musculus; assay: Evaluated for the percent inhibition uptake of radiolabeled thymidine as a measure of inhibition of cell division against the L1210 cells after 4 hr at the concentration of 1.5x10E4M; assay type: functional
Mus musculus [8] = species on record: Mus musculus; assay: Evaluated for the percent inhibition uptake of radiolabeled leucine as a measure of inhibition of protein synthesis i.e., cell death against the SV40-transformed 3T3 cells at 4 hr at the concentration of 1Mx10E4 for expt VIII; assay type: functional, NIH3T3
Mus musculus [9] = species on record: Mus musculus; assay: Evaluated for the percent inhibition uptake of radiolabeled thymidine as a measure of inhibition of cell division against the SV40-transformed 3T3 cells at 4 hr at the concentration of 3Mx10E4 for expt VII; assay type: functional, NIH3T3
Mus musculus [10] = species on record: Mus musculus; assay: Toxicity toward P-815 Mastocytoma cells after 5 hr was determined as percent of [51Cr]- release from labeled cells as a measure of cell death at a concentration of 0.104 mM (expt IV); assay type: functional
Mus musculus [11] = species on record: Mus musculus; assay: Toxicity was evaluated for the compound at a concentration of 0.104 mM against […] Mastocytoma.; assay type: functional
Mus musculus [12] = species on record: Mus musculus; assay: Evaluated for the percent inhibition uptake of radiolabeled thymidine as a measure of inhibition of cell division against the L1210 cells after 4 hr at the concentration of 0.5x10E4M; assay type: functional
Mus musculus [13] = species on record: Mus musculus; assay: Evaluated for the percent inhibition uptake of radiolabeled thymidine as a measure of inhibition of cell division against the SV40-transformed 3T3 cells at 4 hr at the concentration of 6Mx10E4 for expt VI; assay type: functional, NIH3T3
Mus musculus [14] = species on record: Mus musculus; assay: Evaluated for the percent inhibition uptake of radiolabeled thymidine as a measure of inhibition of cell division against the SV40-transformed 3T3 cells after 4 hr at the concentration of 3x10E4M for experiment XI; assay type: functional, NIH3T3
Mus musculus [15] = species on record: Mus musculus; assay: Toxicity was evaluated for the compound at a concentration of 0.208 mM against […] Mastocytoma.; assay type: functional
Mus musculus [16] = species on record: Mus musculus; assay: Evaluated for the percent inhibition uptake of radiolabeled thymidine as a measure of inhibition of cell division against the SV40-transformed 3T3 cells at 4 hr at the concentration of 6Mx10E4 for expt VII; assay type: functional, NIH3T3
Mus musculus [17] = species on record: Mus musculus; assay: Evaluated for the percent inhibition uptake of radiolabeled thymidine as a measure of inhibition of cell division against the L1210 cells after 4 hr at the concentration of 3.0x10E4M; assay type: functional
Mus musculus [18] = species on record: Mus musculus; assay: Evaluated for the percent inhibition uptake of radiolabeled leucine as a measure of inhibition of protein synthesis i.e., cell death against the SV40-transformed 3T3 cells at 4 hr at the concentration of 3Mx10E4 for expt VII; assay type: functional, NIH3T3
Mus musculus [19] = species on record: Mus musculus; assay: Evaluated for the percent inhibition uptake of radiolabeled thymidine as a measure of inhibition of cell division against the SV40-transformed 3T3 cells at 4 hr at the concentration of 3Mx10E4 for expt VI; assay type: functional, NIH3T3
Mus musculus [20] = species on record: Mus musculus; assay: Toxicity toward P-815 Mastocytoma cells after 5 hr was determined as percent of [51Cr]- release from labeled cells as a measure of cell death at a concentration of 0.312 mM (expt V); assay type: functional
Mus musculus [21] = species on record: Mus musculus; assay: Evaluated for the percent inhibition uptake of radiolabeled thymidine as a measure of inhibition of cell division against the SV40-transformed 3T3 cells after 4 hr at the concentration of 3x10E4M for experiment X; assay type: functional, NIH3T3
Mus musculus [22] = species on record: Mus musculus; assay: Evaluated for the percent inhibition uptake of radiolabeled thymidine as a measure of inhibition of cell division against the SV40-transformed 3T3 cells at the concentration of 3*10^-4M after 24 hr; assay type: functional, NIH3T3
Mus musculus [23] = species on record: Mus musculus; assay: Evaluated for the percent inhibition uptake of radiolabeled thymidine as a measure of inhibition of cell division against the SV40-transformed 3T3 cells at the concentration of 3*10^-4M after 3h; assay type: functional, NIH3T3
Mus musculus [24] = species on record: Mus musculus; assay: Toxicity was evaluated for the compound at a concentration of 0.312 mM against […] Mastocytoma.; assay type: functional
Mus musculus [25] = species on record: Mus musculus; assay: Toxicity toward P-815 Mastocytoma cells after 5 hr was determined as percent of [51Cr]- release from labeled cells as a measure of cell death at a concentration of 0.208 mM (expt III); assay type: functional
Mus musculus [26] = species on record: Mus musculus; assay: Toxicity toward P-815 Mastocytoma cells after 5 hr was determined as percent of [51Cr]- release from labeled cells as a measure of cell death at a concentration of 0.208 mM (expt IV); assay type: functional
Mus musculus [27] = species on record: Mus musculus; assay: Evaluated for the percent inhibition uptake of radiolabeled thymidine as a measure of inhibition of cell division against the SV40-transformed 3T3 cells at 4 hr at the concentration of 10Mx10E4 for expt VII; assay type: functional, NIH3T3
Mus musculus [28] = species on record: Mus musculus; assay: Evaluated for the percent inhibition uptake of radiolabeled thymidine as a measure of inhibition of cell division against the SV40-transformed 3T3 cells at the concentration of 3*10^-4M after 4 hr; assay type: functional, NIH3T3
Mus musculus [29] = species on record: Mus musculus; assay: Evaluated for the percent inhibition uptake of radiolabeled leucine as a measure of inhibition of protein synthesis i.e., cell death against the SV40-transformed 3T3 cells at 4 hr at the concentration of 6Mx10E4 for expt VII; assay type: functional, NIH3T3
Mus musculus [30] = species on record: Mus musculus; assay: Evaluated for the percent inhibition uptake of radiolabeled leucine as a measure of inhibition of protein synthesis i.e., cell death against the SV40-transformed 3T3 cells at 4 hr at the concentration of 6Mx10E4 for expt VIII; assay type: functional, NIH3T3
Mus musculus [31] = species on record: Mus musculus; assay: Evaluated for the percent inhibition uptake of radiolabeled thymidine as a measure of inhibition of cell division against the SV40-transformed 3T3 cells after 4 hr at the concentration of 6x10E4M for experiment X; assay type: functional
Mus musculus [32] = species on record: Mus musculus; assay: Evaluated for the percent inhibition uptake of radiolabeled thymidine as a measure of inhibition of cell division against the SV40-transformed 3T3 cells at 4 hr at the concentration of 1Mx10E4 for expt VII; assay type: functional, NIH3T3
Mus musculus [33] = species on record: Mus musculus; assay: Evaluated for the percent inhibition uptake of radiolabeled thymidine as a measure of inhibition of cell division against the SV40-transformed 3T3 cells after 4 hr at the concentration of 6x10E4M for experiment XI; assay type: functional, NIH3T3
Mus musculus [34] = species on record: Mus musculus; assay: Evaluated for the percent inhibition uptake of radiolabeled thymidine as a measure of inhibition of cell division against the SV40-transformed 3T3 cells at 4 hr at the concentration of 4Mx10E4 for expt VII; assay type: functional, NIH3T3
Mus musculus [35] = species on record: Mus musculus; assay: Evaluated for the percent inhibition uptake of radiolabeled leucine as a measure of inhibition of protein synthesis i.e., cell death against the SV40-transformed 3T3 cells at 4 hr at the concentration of 3Mx10E4 for expt VIII; assay type: functional, NIH3T3
Mus musculus [36] = species on record: Mus musculus; assay: Evaluated for the percent inhibition uptake of radiolabeled thymidine as a measure of inhibition of cell division against the SV40-transformed 3T3 cells at the concentration of 3*10^-4M after 8 hr; assay type: functional, NIH3T3
Mus musculus [37] = species on record: Mus musculus; assay: Evaluated for the percent inhibition uptake of radiolabeled thymidine as a measure of inhibition of cell division against the SV40-transformed 3T3 cells at 4 hr at the concentration of 1Mx10E4 for expt VI; assay type: functional
Mus musculus [38] = species on record: Mus musculus; assay: Evaluated for the percent inhibition uptake of radiolabeled thymidine as a measure of inhibition of cell division against the SV40-transformed 3T3 cells at the concentration of 3*10^-4M after 6 hr; assay type: functional, NIH3T3
Mus musculus [39] = species on record: Mus musculus; assay: Evaluated for the percent inhibition uptake of radiolabeled thymidine as a measure of inhibition of cell division against the SV40-transformed 3T3 cells after 4 hr at the concentration of 1x10E4M for experiment XI; assay type: functional, NIH3T3
Mus musculus [40] = species on record: Mus musculus; assay: Evaluated for the percent inhibition uptake of radiolabeled leucine as a measure of inhibition of protein synthesis i.e., cell death against the SV40-transformed 3T3 cells at 4 hr at the concentration of 1Mx10E4 for expt VII; assay type: functional, NIH3T3
Mus musculus [41] = species on record: Mus musculus; assay: Evaluated for the percent inhibition uptake of radiolabeled thymidine as a measure of inhibition of cell division against the SV40-transformed 3T3 cells after 4 hr at the concentration of 1x10E4M for experiment X; assay type: functional
Mus musculus [42] = species on record: Mus musculus; assay: Toxicity toward P-815 Mastocytoma cells after 5 hr was determined as percent of [51Cr]- release from labeled cells as a measure of cell death at a concentration of 0.312 mM (expt IV); assay type: functional

Compound: CCCCCCCCCCCCN(CC(F)(F)F)C(=O)[C@H](Cc1ccccc1)NC(=O)CNC(=O)OCc1ccccc1
- Activity [1]: 44
- Activity (MPM): 20
- Activity [2]: 29
- Activity [3]: 28
- Cr release (Mus musculus [4]): 11%
- Toxicity (Mus musculus [5]): 200 µg/mL
- Activity [6]: < 20

Compound: O=C(CNC(=O)OCc1ccccc1)N[C@H](Cc1ccccc1)C(=O)N(CCCl)CCCl
- Inhibition uptake (Mus musculus [7]): 57%
- Inhibition uptake (Mus musculus [8]): 5%
- Inhibition uptake (Mus musculus [9]): 46%
- Cr release (Mus musculus [10]): 22%
- Toxicity (Mus musculus [11]): 50 µg/mL
- Inhibition uptake (Mus musculus [12]): 28%
- Inhibition uptake (Mus musculus [13]): 93%
- Inhibition uptake (Mus musculus [14]): 36%
- Toxicity (Mus musculus [15]): 100 µg/mL
- Inhibition uptake (Mus musculus [16]): 70%
- Inhibition uptake (Mus musculus [17]): 76%
- Inhibition uptake (Mus musculus [18]): 10%
- Inhibition uptake (Mus musculus [19]): 60%
- Cr release (Mus musculus [20]): 19%
- Inhibition uptake (Mus musculus [21]): 46%
- Inhibition uptake (Mus musculus [22]): 88%
- Inhibition uptake (Mus musculus [23]): 76%
- Toxicity (Mus musculus [24]): 150 µg/mL
- Cr release (Mus musculus [25]): 29%
- Cr release (Mus musculus [26]): 27%
- Inhibition uptake (Mus musculus [27]): 92%
- Inhibition uptake (Mus musculus [28]): 80%
- Inhibition uptake (Mus musculus [29]): 36%
- Inhibition uptake (Mus musculus [30]): 83%
- Inhibition uptake (Mus musculus [31]): 90%
- Inhibition uptake (Mus musculus [32]): 12%
- Inhibition uptake (Mus musculus [33]): 75%
- Inhibition uptake (Mus musculus [34]): 61%
- Inhibition uptake (Mus musculus [35]): 33%
- Inhibition uptake (Mus musculus [36]): 86%
- Inhibition uptake (Mus musculus [37]): 7%
- Inhibition uptake (Mus musculus [38]): 83%
- Inhibition uptake (Mus musculus [39]): 36%
- Inhibition uptake (Mus musculus [40]): -1%
- Inhibition uptake (Mus musculus [41]): 14%
- Cr release (Mus musculus [42]): 34%
